Results on two compounds are retold here after patent US20250345314A1 (PUSAN NATIONAL UNIVERSITY INDUSTRY-UNIVERSITY COOPERATION …, priority 2024, published 2025).

Molecules are shown by their SMILES.

Assay type in all cases: cell-based
For data set [1], the system named is mesenchymal stem cells UCB #001, UCB #006, and UCB #192. The experiment in a line: Cell viability of mesenchymal stem cells by CCK-8 assay. The protocol: The effects of rapamycin on the survival rate of mesenchymal stem cells and the secretion of HGF and PGE2 were confirmed. Specifically, the mesenchymal stem cells UCB #001, UCB #006, and UCB #192 were treated with rapamycin at various concentrations of 1.25, 2.5, 5, 10, 20, 40, and 80 ng/ml for 24 hours.
(§1) The effects of pirfenidone, a drug used clinically as an anti-fibrotic drug, on the survival rate of mesenchymal stem cells and the secretion of HGF and PGE2 were confirmed in the same manner as rapamycin. The results of confirming the survival rate of mesenchymal stem cells according to pirfenidone treatment were shown in FIG. 3A, and the results of analyzing HGF and PGE2 secretion were shown in FIGS. 3B and 3C, respectively.
(Tetrazolium dyes change colour on reduction, which living cells bring about.)

The test system is the same in data set [2]. The experiment in a line: HGF secretion of mesenchymal stem cells by ELISA. The protocol: (§2) In addition, changes in HGF and PGE2 secretion in mesenchymal stem cells treated with rapamycin at various concentrations were analyzed by ELISA. The results of analyzing HGF and PGE2 secretion were shown in FIGS. 2B and 2C, respectively.
as §1

Data set [3] shares this test system. The experiment in a line: PGE2 secretion of mesenchymal stem cells by ELISA. To be noted: pirfenidone treatment. The method, then: as §2, §1
In general terms: An ELISA detects its analyte on a solid surface through an enzyme-linked reagent.

Consider `Cc1ccc(=O)n(-c2ccccc2)c1` [pirfenidone], for which the cell viability result in data set [1] (UCB #001, pirfenidone 1 to 6 μg/ml, CCK-8) was “increased”; in data set [1] (UCB #006 and UCB #192, pirfenidone 1 to 10 μg/ml, CCK-8), “increased”. For the same compound, the “concentration at which cytotoxicity was exhibited” value in data set [1] (UCB #006 and UCB #192, CCK-8) is no less than 20000 ng/mL. Further, the HGF secretion entry in data set [2] (pirfenidone 20 μg/ml) is reported as “reduced”; in data set [2] (pirfenidone 4 to 10 μg/ml), “did not affect”. Also, the PGE2 secretion entry in data set [3] was “no significant change”.

Regarding `CO[C@H]1C[C@@H]2CC[C@@H](C)[C@@](O)(O2)C(=O)C(=O)N2CCCC[C@H]2C(=O)O[C@H]([C@H](C)C[C@@H]2CC[C@@H](O)[C@H](OC)C2)CC(=O)[C@H](C)/C=C(\C)[C@@H](O)[C@@H](OC)C(=O)[C@H](C)C[C@H](C)/C=C/C=C/C=C/1C` [rapamycin], in data set [1] (mesenchymal stem cells, 24 hours, CCK-8), the “concentration at which cytotoxicity was exhibited” value is no less than 80 ng/mL.
